PMC12492669, “Malic enzyme-based system for transhydrogenation between nicotinamide cofactors” (Synthetic and Systems Biotechnology, 2025)

Biological target: T1, ME (NAD-dependent malic enzyme); ME∗ (ME mutant with L310R/Q401C) (Escherichia coli, UniProt P26616)
T1 construct: gene maeA; recombinant from E. coli BL21(DE3), pET24b-ME, Ni-NTA purified; 64 kDa
Test: malate oxidative decarboxylation, absorbance at […] nm
Format: biochemical
Settings: 0.5 mM NCD, 5 mM malate, 2 mM MgCl2, 50 mM HEPES pH 7.5; weak

T1 sequence (P26616 whole entry, stated change not applied): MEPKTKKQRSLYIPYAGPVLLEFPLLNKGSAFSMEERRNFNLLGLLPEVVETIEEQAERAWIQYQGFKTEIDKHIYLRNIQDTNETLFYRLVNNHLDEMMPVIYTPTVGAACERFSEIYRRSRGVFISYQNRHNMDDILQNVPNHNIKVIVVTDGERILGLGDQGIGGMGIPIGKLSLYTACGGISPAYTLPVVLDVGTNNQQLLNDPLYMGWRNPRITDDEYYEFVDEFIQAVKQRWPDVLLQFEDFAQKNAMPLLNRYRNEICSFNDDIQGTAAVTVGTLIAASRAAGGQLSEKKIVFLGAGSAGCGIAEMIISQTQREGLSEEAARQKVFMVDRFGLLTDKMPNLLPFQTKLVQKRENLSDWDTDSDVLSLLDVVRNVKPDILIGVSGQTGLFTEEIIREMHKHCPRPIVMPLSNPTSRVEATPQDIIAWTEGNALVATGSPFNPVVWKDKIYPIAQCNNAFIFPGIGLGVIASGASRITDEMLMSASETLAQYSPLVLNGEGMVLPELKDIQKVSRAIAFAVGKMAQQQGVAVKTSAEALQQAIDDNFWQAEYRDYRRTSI

NC(=O)c1ccc[n+]([C@@H]2O[C@H](COP(=O)([O-])OP(=O)(O)OC[C@H]3O[C@@H](n4ccc(N)nc4=O)[C@H](O)[C@@H]3O)[C@@H](O)[C@H]2O)c1 [NCD]
malate oxidative decarboxylation, absorbance at 340 nm: ME exhibited the highest activity towards NAD and weak activity towards NCD and NADP
